In assay [1] the target is T1, OCT2 (Homo sapiens, UniProt O15244).
T1 sequence (O15244 1-555): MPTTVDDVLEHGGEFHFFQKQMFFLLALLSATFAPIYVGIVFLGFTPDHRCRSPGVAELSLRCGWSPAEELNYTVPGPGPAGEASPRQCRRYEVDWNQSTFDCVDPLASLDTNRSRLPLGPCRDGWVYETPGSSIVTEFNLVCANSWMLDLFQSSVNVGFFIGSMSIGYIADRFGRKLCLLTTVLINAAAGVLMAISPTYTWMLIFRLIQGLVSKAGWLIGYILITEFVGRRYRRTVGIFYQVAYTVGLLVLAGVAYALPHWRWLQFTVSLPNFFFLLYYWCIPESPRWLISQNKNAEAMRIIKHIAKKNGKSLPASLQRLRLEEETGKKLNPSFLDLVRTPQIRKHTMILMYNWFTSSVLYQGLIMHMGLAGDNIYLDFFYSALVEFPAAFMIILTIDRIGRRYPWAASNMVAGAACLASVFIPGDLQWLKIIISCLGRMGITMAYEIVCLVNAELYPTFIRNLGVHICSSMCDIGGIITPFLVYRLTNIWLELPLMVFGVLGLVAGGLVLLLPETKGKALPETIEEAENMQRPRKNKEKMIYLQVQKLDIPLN

In assay [2] the target is T2, MATE1 (Homo sapiens, UniProt Q96FL8).
T2 sequence (Q96FL8 1-570): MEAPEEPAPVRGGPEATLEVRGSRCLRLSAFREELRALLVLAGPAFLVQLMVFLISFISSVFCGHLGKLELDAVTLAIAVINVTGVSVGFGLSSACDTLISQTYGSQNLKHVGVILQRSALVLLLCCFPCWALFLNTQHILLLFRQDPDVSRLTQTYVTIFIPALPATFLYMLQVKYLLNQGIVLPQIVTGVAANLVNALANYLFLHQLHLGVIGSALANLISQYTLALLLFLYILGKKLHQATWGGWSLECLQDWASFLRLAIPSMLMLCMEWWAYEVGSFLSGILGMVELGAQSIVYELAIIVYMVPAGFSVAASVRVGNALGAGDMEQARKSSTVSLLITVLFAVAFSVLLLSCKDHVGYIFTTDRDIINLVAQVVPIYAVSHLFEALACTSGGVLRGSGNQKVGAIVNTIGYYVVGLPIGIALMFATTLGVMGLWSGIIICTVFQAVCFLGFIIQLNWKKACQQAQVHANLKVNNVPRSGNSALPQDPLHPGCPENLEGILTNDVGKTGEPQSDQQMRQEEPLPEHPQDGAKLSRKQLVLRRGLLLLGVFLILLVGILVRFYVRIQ

The conditions of assay [3]: Cushing's syndrome patients, reportedly; cited from earlier work.

These results are taken from patent US11278547B2 (Strongbridge Dublin Limited, priority 2019, dated 2022).

As usually defined, the IC50 is the concentration needed to halve the response being measured. A higher IC50 goes with a need for much substance.

SMILES strings stand for the structures.

Regarding `CC(=O)N1CCN(c2ccc(OCC3COC(Cn4ccnc4)(c4ccc(Cl)cc4Cl)O3)cc2)CC1` (racemic) [Ketoconazole, ketoconazole], the results for the IC50 in assay [1] and in assay [2] were 1520 nM and 279 nM, respectively. Further, the “patients in whom hypercortisolism is normalized” value in assay [3] is given as 30-70%.

With `CC(=O)N1CCN(c2ccc(OC[C@@H]3CO[C@@](Cn4ccnc4)(c4ccc(Cl)cc4Cl)O3)cc2)CC1` (relative stereo) [Levoketoconazole, 2S,4R cis-1-acetyl-4-[4-[[2-(2,4-dichlorophenyl)-2-(1H-imidazol-1-ylmethyl)-1,3-dioxolan-4-yl]methoxyl]phenyl]piperazine], the IC50 was determined as 218 nM in assay [1] and 248 nM in assay [2].
